Legend:
Type in all cases: cell-based
T2R08 (TAS2R08) = target: T1, T2R08 (TAS2R08) (Homo sapiens, UniProt Q9NYW2); test: FLIPR calcium assay, block of bitter agonist response in cells transfected with T2R08; details: saturated fatty acid concentration of 200 μM, read-out: percentage block of cellular response over baseline, 08
T1 construct: expressed in transfected cells; host or cells: cells expressing a promiscuous G protein (e.g., G16g44)
T1 sequence (Q9NYW2 1-309): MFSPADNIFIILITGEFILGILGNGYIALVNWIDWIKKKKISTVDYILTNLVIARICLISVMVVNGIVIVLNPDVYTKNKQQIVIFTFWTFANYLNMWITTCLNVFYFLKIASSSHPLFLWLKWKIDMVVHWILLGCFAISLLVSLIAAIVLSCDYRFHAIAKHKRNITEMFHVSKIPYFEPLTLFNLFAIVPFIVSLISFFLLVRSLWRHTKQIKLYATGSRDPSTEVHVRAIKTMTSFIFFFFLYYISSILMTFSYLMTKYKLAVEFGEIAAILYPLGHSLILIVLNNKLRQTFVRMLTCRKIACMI
Description: (§1) Cells expressing a promiscuous […] (e.g., G16g44) were transfected with vectors encoding […] functional bitter receptor cDNAs, with one receptor per transfection. The cells were transfected directly in 384-well format high-density plates and incubated for 28 hours. Later, cells were loaded with the Ca-specific dye Fluo4-AM. After an incubation of 60 minutes, excess dye is washed off, and cells are stimulated with various saturated fatty acids while simultaneously recording changes in intracellular fluorescence using a FLIPR instrument. Bitter agonist and responding receptors were identified.
(§2) The above protocol was carried out using 13 different saturated fatty acids. A particular T2R receptor was identified as being antagonized by a particular saturated fatty acid if it triggered a >25% block of agonist's cellular response at 200 µM concentration of saturated fatty acid. […] Table 2 indicates the thirteen (13) compounds tested by their compound number from Table 1 above. The 6 bitter taste receptors are the human bitter taste receptors, that we named T2R01 (TAS2R01), T2R08 (TAS2R08), T2R10 (TAS2R10), T2R14 (TAS2R14), T2R54 (TAS2R39), and T2R75 (TAS2R46). The corresponding IUPHAR nomenclature for each receptor is given in parenthesis. In Table 2, these receptors are identified by the last two digits. For example, T2R01 is indicated as 01. Table 2 reports the percentage block of cellular response over baseline at a saturated fatty acid concentration of 200 μM.

T2R54 (TAS2R39) = target: T2, T2R54 (TAS2R39) (Homo sapiens, UniProt P59534); test: FLIPR calcium assay, block of bitter agonist response in cells transfected with T2R54; details: saturated fatty acid concentration of 200 μM
T2 construct: expressed in transfected cells; host or cells: cells expressing a promiscuous G protein (e.g., G16g44)
T2 sequence (P59534 1-338): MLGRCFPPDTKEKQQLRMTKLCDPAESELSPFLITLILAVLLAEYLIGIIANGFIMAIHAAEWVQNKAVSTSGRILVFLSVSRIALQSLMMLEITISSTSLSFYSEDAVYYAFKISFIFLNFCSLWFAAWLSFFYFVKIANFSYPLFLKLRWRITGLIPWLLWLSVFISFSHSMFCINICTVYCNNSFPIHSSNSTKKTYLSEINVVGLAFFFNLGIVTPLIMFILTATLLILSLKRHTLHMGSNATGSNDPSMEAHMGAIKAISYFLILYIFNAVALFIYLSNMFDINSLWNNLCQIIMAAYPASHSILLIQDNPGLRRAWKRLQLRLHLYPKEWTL
Description: as §1, with “instrument.” for “instrument. Bitter agonist and responding receptors were identified.”
as §2, with “acids.” for “acids. A particular T2R receptor was identified as being antagonized by a particular saturated fatty acid if it triggered a >25% block of agonist's cellular response at 200 µM concentration of saturated fatty acid.”

T2R01 (TAS2R01) = target: T3, T2R01 (TAS2R01) (Homo sapiens, UniProt Q9NYW7); test: FLIPR calcium assay, block of bitter agonist response in cells transfected with T2R01; details: saturated fatty acid concentration of 200 μM, read-out: percentage block of cellular response over baseline, 01
T3 construct: expressed in transfected cells; host or cells: cells expressing a promiscuous G protein (e.g., G16g44)
T3 sequence (Q9NYW7 1-299): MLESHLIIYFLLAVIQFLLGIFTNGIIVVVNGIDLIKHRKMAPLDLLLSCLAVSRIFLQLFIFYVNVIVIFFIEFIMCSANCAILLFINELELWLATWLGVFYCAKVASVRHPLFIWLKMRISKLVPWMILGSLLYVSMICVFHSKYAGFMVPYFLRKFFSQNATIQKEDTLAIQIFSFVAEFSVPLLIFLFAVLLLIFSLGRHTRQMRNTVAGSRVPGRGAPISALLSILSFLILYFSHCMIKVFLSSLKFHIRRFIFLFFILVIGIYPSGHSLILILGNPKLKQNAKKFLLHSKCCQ
Description: as §1, with “instrument.” for “instrument. Bitter agonist and responding receptors were identified.”
as §2, with “acids.” for “acids. A particular T2R receptor was identified as being antagonized by a particular saturated fatty acid if it triggered a >25% block of agonist's cellular response at 200 µM concentration of saturated fatty acid.”

T2R10 (TAS2R10) = target: T4, T2R10 (TAS2R10) (Homo sapiens, UniProt Q9NYW0); test: FLIPR calcium assay, block of bitter agonist response in cells transfected with T2R10; details: saturated fatty acid concentration of 200 μM, read-out: percentage block of cellular response over baseline, 10
T4 construct: expressed in transfected cells; host or cells: cells expressing a promiscuous G protein (e.g., G16g44)
T4 sequence (Q9NYW0 1-307): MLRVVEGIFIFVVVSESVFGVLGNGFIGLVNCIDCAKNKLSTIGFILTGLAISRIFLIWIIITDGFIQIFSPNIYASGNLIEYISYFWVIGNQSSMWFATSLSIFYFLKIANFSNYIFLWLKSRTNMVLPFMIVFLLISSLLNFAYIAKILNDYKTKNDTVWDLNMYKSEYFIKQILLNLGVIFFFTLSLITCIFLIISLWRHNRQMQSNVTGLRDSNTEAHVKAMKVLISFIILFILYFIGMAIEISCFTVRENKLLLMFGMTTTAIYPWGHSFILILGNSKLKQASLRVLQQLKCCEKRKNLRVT
Description: as §1, with “instrument.” for “instrument. Bitter agonist and responding receptors were identified.”
as §2, with “acids.” for “acids. A particular T2R receptor was identified as being antagonized by a particular saturated fatty acid if it triggered a >25% block of agonist's cellular response at 200 µM concentration of saturated fatty acid.”

T2R14 (TAS2R14) = target: T5, T2R14 (TAS2R14) (Homo sapiens, UniProt Q9NYV8); test: FLIPR calcium assay, block of bitter agonist response in cells transfected with T2R14; details: saturated fatty acid concentration of 200 μM
T5 construct: expressed in transfected cells; host or cells: cells expressing a promiscuous G protein (e.g., G16g44)
T5 sequence (Q9NYV8 1-317): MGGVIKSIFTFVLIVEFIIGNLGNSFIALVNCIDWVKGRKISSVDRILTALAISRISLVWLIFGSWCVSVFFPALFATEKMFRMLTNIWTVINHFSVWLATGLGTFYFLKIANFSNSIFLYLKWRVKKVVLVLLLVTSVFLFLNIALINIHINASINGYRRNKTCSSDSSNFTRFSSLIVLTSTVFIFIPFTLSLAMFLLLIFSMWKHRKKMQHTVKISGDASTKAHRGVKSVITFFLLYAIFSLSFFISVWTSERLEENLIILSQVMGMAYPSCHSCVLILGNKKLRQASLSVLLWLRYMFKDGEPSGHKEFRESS
Description: as §1, with “instrument.” for “instrument. Bitter agonist and responding receptors were identified.”
as §2, with “acids.” for “acids. A particular T2R receptor was identified as being antagonized by a particular saturated fatty acid if it triggered a >25% block of agonist's cellular response at 200 µM concentration of saturated fatty acid.”

T2R75 (TAS2R46) = target: T6, T2R75 (TAS2R46) (Homo sapiens, UniProt P59540); test: FLIPR calcium assay, block of bitter agonist response in cells transfected with T2R75; details: saturated fatty acid concentration of 200 μM
T6 construct: expressed in transfected cells; host or cells: cells expressing a promiscuous G protein (e.g., G16g44)
T6 sequence (P59540 1-309): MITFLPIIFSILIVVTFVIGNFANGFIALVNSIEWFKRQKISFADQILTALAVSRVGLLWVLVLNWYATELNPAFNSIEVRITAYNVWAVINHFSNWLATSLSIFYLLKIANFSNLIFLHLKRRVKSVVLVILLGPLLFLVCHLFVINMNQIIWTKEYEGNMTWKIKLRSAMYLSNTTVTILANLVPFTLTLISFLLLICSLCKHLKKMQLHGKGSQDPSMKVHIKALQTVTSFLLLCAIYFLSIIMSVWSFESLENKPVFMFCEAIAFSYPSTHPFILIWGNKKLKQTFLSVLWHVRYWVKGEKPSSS
Description: as §1, with “instrument.” for “instrument. Bitter agonist and responding receptors were identified.”
as §2, with “acids.” for “acids. A particular T2R receptor was identified as being antagonized by a particular saturated fatty acid if it triggered a >25% block of agonist's cellular response at 200 µM concentration of saturated fatty acid.”

`CCCCCCC(=O)O` [Compound 101, Heptanoic acid (Enanthic acid)] was tested, and the inhibition at 200 µM (T2R08 (TAS2R08)) was 25% and the “percentage block of cellular response over baseline, 54” value (“percentage block … 54” for short) (T2R54 (TAS2R39)) was 65%.

In the case of `CCCCCCCC(=O)O` [Compound 102, Octanoic acid (Caprylic acid)], the inhibition at 200 µM (T2R01 (TAS2R01)) is reported as greater than 30%, the inhibition at 200 µM (T2R10 (TAS2R10)) is reported as 40% and the “percentage block of cellular response over baseline, 14” value (from here on “percentage block … 14”) (T2R14 (TAS2R14)) is reported as greater than 25%. The “percentage block … 54” value (T2R54 (TAS2R39)) was 90% and the “percentage block of cellular response over baseline, 75” value (from here on “percentage block … 75”) (T2R75 (TAS2R46)) was 30%.

`CCCCCCCCC(=O)O` [Compound 103, Nonanoic acid (Pelargonic acid)] showed an inhibition at 200 µM (T2R01 (TAS2R01)) greater than 50%, an inhibition at 200 µM (T2R08 (TAS2R08)) greater than 50% and an inhibition at 200 µM (T2R10 (TAS2R10)) greater than 70%. The “percentage block … 14” value (T2R14 (TAS2R14)) was greater than 35%.

With `CCCCCCCCCC(=O)O` [Compound 104, Decanoic acid (Capric acid)] the inhibition at 200 µM (T2R01 (TAS2R01)) was greater than 75%, the inhibition at 200 µM (T2R08 (TAS2R08)) was greater than 65% and the inhibition at 200 µM (T2R10 (TAS2R10)) was greater than 95%. The “percentage block … 14” value (T2R14 (TAS2R14)) was greater than 55%, the “percentage block … 54” value (T2R54 (TAS2R39)) was greater than 75% and the “percentage block … 75” value (T2R75 (TAS2R46)) was greater than 50%.

In the case of `CCCCCCCCCCC(=O)O` [Compound 105, Undecanoic acid], the inhibition at 200 µM (T2R01 (TAS2R01)) is reported as greater than 75%, the inhibition at 200 µM (T2R10 (TAS2R10)) is reported as greater than 95% and the “percentage block … 14” value (T2R14 (TAS2R14)) is reported as greater than 85%.

For `CCCCCCCCCCCC(=O)O` [Compound 106, Dodecanoic acid (Lauric acid)], the inhibition at 200 µM (T2R01 (TAS2R01)) was greater than 35%, the inhibition at 200 µM (T2R08 (TAS2R08)) was 40% and the inhibition at 200 µM (T2R10 (TAS2R10)) was greater than 85%. The “percentage block … 14” value (T2R14 (TAS2R14)) was 65%.

With `CCCCCCCCCCCCC(=O)O` [Compound 107, Tridecanoic acid] the “percentage block … 14” value (T2R14 (TAS2R14)) was greater than 25%.

In the case of `CCCCC(C)C(=O)O` (stereo not drawn) [Compound 114, 2-Methylhexanoic acid], the “percentage block … 54” value (T2R54 (TAS2R39)) is reported as 50%.

For `CCCCC(CC)C(=O)O` (stereo not drawn) [Compound 115, 2-Ethylhexanoic acid], the “percentage block … 54” value (T2R54 (TAS2R39)) was 50%.

With `CCCCCC(C)C(=O)O` (stereo not drawn) [Compound 117, 2-Methylheptanoic acid] the inhibition at 200 µM (T2R08 (TAS2R08)) was 30%, the inhibition at 200 µM (T2R10 (TAS2R10)) was 30% and the “percentage block … 54” value (T2R54 (TAS2R39)) was 80%.

In the case of `CCCCC(C)CCC(=O)O` (stereo not drawn) [Compound 119, 4-Methyloctanoic acid], the inhibition at 200 µM (T2R01 (TAS2R01)) is reported as 40%, the inhibition at 200 µM (T2R08 (TAS2R08)) is reported as 45% and the inhibition at 200 µM (T2R10 (TAS2R10)) is reported as greater than 60%.

`CCCCC(CC)CCC(=O)O` (stereo not drawn) [Compound 120, 4-Ethyloctanoic acid] gave an inhibition at 200 µM (T2R01 (TAS2R01)) greater than 30%, an inhibition at 200 µM (T2R08 (TAS2R08)) greater than 25% and an inhibition at 200 µM (T2R10 (TAS2R10)) greater than 50%. The “percentage block … 54” value (T2R54 (TAS2R39)) was 95% and the “percentage block … 75” value (T2R75 (TAS2R46)) was 25%.

Compound `CCCCCC(C)CCC(=O)O` (stereo not drawn) [Compound 121, 4-Methylnonanoic acid] has an inhibition at 200 µM (T2R01 (TAS2R01)) greater than 50%, an inhibition at 200 µM (T2R08 (TAS2R08)) greater than 55% and an inhibition at 200 µM (T2R10 (TAS2R10)) greater than 85%. The “percentage block … 14” value (T2R14 (TAS2R14)) was greater than 40%.

From patent US20250275559A1, “SATURATED FATTY ACIDS AND THEIR USE TO MODIFY TASTE” (Firmenich Incorporated, priority 2022, published 2025)
